Results on 45 compounds are retold here after ChEMBL document CHEMBL1130786, “Sulfonamide-based hydroxamic acids as potent inhibitors of mouse macrophage metalloelastase” (Bioorg Med Chem Lett, 1998).

Bounds are passed on as bounds.

In one assay the target is Macrophage metalloelastase (Mus musculus) (UniProt P34960). Description: Inhibitory activity against mouse macrophage metalloelastase (MME) using [3H]elastin as a substrate; NI means no inhibition at 100 nM concentration.
Macrophage metalloelastase (Mus musculus), sequence (P34960 110-473 limits assumed): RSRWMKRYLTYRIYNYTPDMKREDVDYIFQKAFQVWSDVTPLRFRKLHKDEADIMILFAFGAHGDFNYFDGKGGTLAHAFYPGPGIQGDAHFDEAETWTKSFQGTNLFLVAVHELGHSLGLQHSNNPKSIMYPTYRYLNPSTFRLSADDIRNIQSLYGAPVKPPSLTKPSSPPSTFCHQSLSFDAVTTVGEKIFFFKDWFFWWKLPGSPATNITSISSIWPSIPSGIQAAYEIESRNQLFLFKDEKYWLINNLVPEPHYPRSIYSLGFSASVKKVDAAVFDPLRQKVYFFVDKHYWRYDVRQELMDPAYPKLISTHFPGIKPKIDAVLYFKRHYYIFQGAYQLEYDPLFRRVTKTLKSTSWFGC
As to `COc1ccc(S(=O)(=O)N(Cc2cccnc2)[C@@H](C(=O)NOCc2ccccc2)C(C)C)cc1`, the inhibition result is “No inhibition”. Still for that read-out and setting: in the case of `COc1ccc(S(=O)(=O)N(Cc2cccnc2)[C@@H](C(=O)O)C(C)C)cc1` it was “No inhibition”.

In another assay the target is Macrophage metalloelastase (Mus musculus, UniProt P34960). Description: Inhibitory activity against mouse macrophage metalloelastase (MME) using [3H]elastin as a substrate.
Macrophage metalloelastase, sequence (P34960 whole entry): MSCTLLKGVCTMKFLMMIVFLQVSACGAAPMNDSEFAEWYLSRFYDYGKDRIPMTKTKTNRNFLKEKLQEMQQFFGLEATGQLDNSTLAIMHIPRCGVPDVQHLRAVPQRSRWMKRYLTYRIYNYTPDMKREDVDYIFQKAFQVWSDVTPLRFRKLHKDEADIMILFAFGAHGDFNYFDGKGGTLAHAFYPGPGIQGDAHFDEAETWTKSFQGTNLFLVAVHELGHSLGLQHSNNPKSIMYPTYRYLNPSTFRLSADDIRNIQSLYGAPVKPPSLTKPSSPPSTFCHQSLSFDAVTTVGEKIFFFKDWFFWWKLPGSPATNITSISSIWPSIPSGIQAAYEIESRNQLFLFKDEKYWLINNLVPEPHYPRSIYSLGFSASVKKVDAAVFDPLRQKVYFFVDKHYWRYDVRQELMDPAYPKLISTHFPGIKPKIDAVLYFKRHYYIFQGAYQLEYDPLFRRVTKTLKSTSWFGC
`COc1ccc(S(=O)(=O)N(Cc2ccccc2)[C@@H](C(=O)NO)C2CCCC2)cc1`: the IC50 was 15 nM. Still for that read-out and setting: in the case of `CC[C@H](C)C[C@H](C(=O)NO)N(Cc1ccccc1)S(=O)(=O)c1ccc(OC)cc1` it was 16 nM; in that of `COc1ccc(S(=O)(=O)N(Cc2ccccc2)[C@H](C)C(=O)NO)cc1`, 9.6 nM; in that of `COc1ccc(S(=O)(=O)N(Cc2ccccn2)[C@@H](C(=O)NO)C(C)C)cc1`, 6 nM.

Regarding `COc1ccc(S(=O)(=O)N(Cc2ccccc2)[C@@H](C(=O)NO)C2CCNCC2)cc1`, the IC50 is above 100 nM. Same read-out and setting: in the case of `COc1ccc(S(=O)(=O)N(Cc2ccccc2)[C@@H](C(=O)NO)C(C)C)cc1` it was 4.9 nM; in that of `COc1ccc(S(=O)(=O)N(Cc2ccccn2)[C@H](C(=O)NO)C(C)C)cc1`, 37 nM; in that of `COc1ccc(S(=O)(=O)N(Cc2ccccc2)[C@H](CC(C)C)C(=O)NO)cc1`, 13 nM. Same read-out and setting: in the case of `CC[C@@H](C)C[C@H](C(=O)NO)N(Cc1ccccc1)S(=O)(=O)c1ccc(OC)cc1` it was 4.8 nM; in that of `COc1ccc(S(=O)(=O)N(Cc2ccccc2)[C@@H](C(=O)NO)c2ccccc2)cc1`, 31 nM. Same read-out and setting: in the case of `COc1ccc(S(=O)(=O)N(Cc2cccnc2)[C@@H](C(=O)NO)C(C)C)cc1` [CGS-27023A] it was 7.7 nM; in that of `COc1ccc(S(=O)(=O)N(Cc2ccccc2)[C@@H](C)C(=O)NO)cc1`, 35 nM; in that of `COc1ccc(S(=O)(=O)N(Cc2ccccc2)C(C(=O)NO)C(C)C)cc1` (stereo not given), 16 nM. Compound `COc1ccc(S(=O)(=O)N(Cc2ccccc2)[C@H](CCCCNC(=O)Oc2ccccc2)C(=O)NO)cc1` registered an IC50 of 67 nM. Same read-out and setting: in the case of `COc1ccc(S(=O)(=O)N(Cc2ccccc2)C(C)C(=O)NO)cc1` (stereo not given) it was 13 nM; in that of `COc1ccc(S(=O)(=O)N(Cc2ccccn2)[C@H](CC(C)C)C(=O)NO)cc1`, 6.9 nM.

The next assay concerns the target Macrophage metalloelastase (Mus musculus) (UniProt P34960). The experiment in a line: Inhibitory activity against mouse macrophage metalloelastase (MME) at 100 nM concentration using [3H]elastin as a substrate.
In the case of `COc1ccc(S(=O)(=O)NCC(=O)NO)cc1`, the inhibition came out at 0%. Still for that read-out and setting: in the case of `CCC(C)N(CC(=O)NO)S(=O)(=O)c1ccc(OC)cc1` (stereo not given) it was 35%; in that of `COc1ccc(CN(CC(=O)NO)S(=O)(=O)c2ccc(OC)cc2)cc1`, 89%. In turn, `COc1ccc(S(=O)(=O)N(CC(=O)NO)Cc2ccccc2)cc1` gave an inhibition of 74%. On the same count and under the same terms, in the case of `COc1ccc(S(=O)(=O)N(CCc2ccccc2)CC(=O)NO)cc1` it was 88%; in that of `COc1ccc(S(=O)(=O)N(CC(=O)NO)Cc2ccccn2)cc1`, 88%; in that of `COc1ccc(S(=O)(=O)N(CC(=O)NO)Cc2ccc(-c3ccccc3)cc2)cc1`, 86%. Same read-out and setting: in the case of `COc1ccc(S(=O)(=O)N(CC(=O)NO)C(C)C)cc1` it was 0%; in that of `COc1ccc(S(=O)(=O)N(CCCCc2ccccc2)CC(=O)NO)cc1`, 83%. The same measure, in the same setting: in the case of `CC(C)CN(CC(=O)NO)S(=O)(=O)c1ccc(Cl)cc1` it was 68%.

`COc1ccc(S(=O)(=O)N(CC(=O)NO)Cc2cccc(OC)c2)cc1` came in with an inhibition of 75%. The same measure, in the same setting: in the case of `CC(C)CN(CC(=O)NO)S(=O)(=O)c1ccc(F)cc1` it was 22%; in that of `CC(C)CN(CC(=O)NO)S(=O)(=O)c1ccc(N)cc1`, 22%; in that of `COc1ccc(S(=O)(=O)N(CC(=O)NO)CC2CCCCC2)cc1`, 77%. Still for that read-out and setting: in the case of `CCOCCOc1ccc(S(=O)(=O)N(CC(=O)NO)CC(C)C)cc1` it was 69%; in that of `COc1ccc(S(=O)(=O)N(CCC(C)C)CC(=O)NO)cc1`, 11%. Still for that read-out and setting: in the case of `COc1ccc(S(=O)(=O)N(CCC2CCCCC2)CC(=O)NO)cc1` it was 79%; in that of `CC(C)CN(CC(=O)NO)S(=O)(=O)c1ccccc1`, 27%. Regarding `CC(C)CN(CC(=O)NO)S(=O)(=O)c1ccc(N(C)C)cc1`, the inhibition worked out at 34%.

Consider `COc1ccc(S(=O)(=O)N(CC(=O)NO)Cc2ccc(C)cc2)cc1`, for which the inhibition stood at 82%.

`COc1ccc(S(=O)(=O)N(CC(=O)NO)Cc2ccncc2)cc1` displayed an inhibition of 92%. The same measure, in the same setting: in the case of `COc1ccc(S(=O)(=O)N(CC(=O)NO)C2CCCCC2)cc1` it was 13%; in that of `COc1ccc(S(=O)(=O)N(CC(=O)NO)Cc2cccnc2)cc1`, 80%; in that of `COc1ccc(S(=O)(=O)N(CC(=O)NO)Cc2ccc(Cl)cc2)cc1`, 76%. On the same count and under the same terms, in the case of `COc1ccc(S(=O)(=O)N(CC(=O)NO)Cc2ccc3ccccc3n2)cc1` it was 50%; in that of `Cc1ccc(S(=O)(=O)N(CC(=O)NO)CC(C)C)cc1`, 56%; in that of `COc1ccc(S(=O)(=O)N(CC(=O)NO)CC(C)C)cc1`, 70%.

For orientation: inhibition means the share of the control response that was lost under treatment. The IC50 is the point on the concentration scale where inhibition reaches its midpoint. Low values mean greater potency, high ones weaker potency.
